SMILES strings stand for the structures.

We go through 22 compounds from ChEMBL document CHEMBL1146306, “Design and synthesis of conformationally constrained tri-substituted ureas as potent antagonists of the human glucagon receptor” (Bioorg Med Chem Lett, 2007).

Data set [1] addresses T1, Glucagon receptor (Homo sapiens, UniProt P47871). Nature of the data set: Antagonist activity at human glucagon receptor transfected in CHO cells assessed as inhibition of glucagon-induced cAMP accumulation. Format: functional, cell-based.
In data set [2] the test system is CHO. Nature of the data set: Selectivity for human glucagon receptor over human GIP receptor expressed in CHO cells by glucagon-stimulated cAMP accumulation assay. In kind it is cell-based.
Data set [3] addresses T1, Glucagon receptor. Nature of the data set: Displacement of [125]glucagon from human glucagon receptor expressed in CHO cells. In kind it is cell-based.
Data set [4] deals with T2, Gastric inhibitory polypeptide receptor (Homo sapiens, UniProt P48546).
T2 sequence (P48546 whole entry): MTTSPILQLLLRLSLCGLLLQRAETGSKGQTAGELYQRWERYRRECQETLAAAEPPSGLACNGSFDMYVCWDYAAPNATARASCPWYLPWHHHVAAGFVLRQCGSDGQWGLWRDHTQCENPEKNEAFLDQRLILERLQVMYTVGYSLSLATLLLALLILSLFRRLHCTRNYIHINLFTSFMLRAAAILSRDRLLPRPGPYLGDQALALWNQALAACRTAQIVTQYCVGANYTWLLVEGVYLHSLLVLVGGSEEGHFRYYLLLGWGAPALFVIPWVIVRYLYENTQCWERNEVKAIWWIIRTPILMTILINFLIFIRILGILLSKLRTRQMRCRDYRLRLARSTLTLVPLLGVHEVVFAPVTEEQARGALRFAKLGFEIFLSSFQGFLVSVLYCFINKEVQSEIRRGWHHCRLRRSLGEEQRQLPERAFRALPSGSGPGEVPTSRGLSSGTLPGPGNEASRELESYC
Nature of the data set: Antagonist activity at human GIP receptor transfected in CHO cells assessed as inhibition of […] cAMP accumulation. Format: functional, cell-based.

Data set [5] is described as follows: Bioavailability in mouse at 1 mg/kg, iv and 2 mg/kg, po. Format: ADME, organism-based. The following applies: in vivo.
The nature of data set [6]: Cmax in mouse at 1 mg/kg, iv and 2 mg/kg, po. The following applies: in vivo. In kind it is ADME, organism-based.
A short description of data set [7]: Half life in mouse at 1 mg/kg, iv and 2 mg/kg, po. The note with it: in vivo. Format: ADME, organism-based.
Data set [8] can be described thus: Volume of distribution at steady state in mouse at 1 mg/kg, iv and 2 mg/kg, po. The note with it: in vivo, read-out: Vdss. Format: ADME, organism-based.
A short description of data set [9]: Plasma clearance in mouse at 1 mg/kg, iv and 2 mg/kg, po. In kind it is ADME, organism-based.
The subject of data set [10] is Mus musculus. As to the kind of experiment: Decrease in non-fasting blood glucose level in transgenic diabetic mouse expressing human glucagon receptor at 3 mg/kg, po after 3 days relative to lean control. Details: scale not given: the % may be the effect or the level left; call rule not given here. Format: functional.
Data set [11] relates to Mus musculus. Nature of the data set: Decrease in non-fasting blood glucose level in transgenic diabetic mouse expressing human glucagon receptor at 10 mg/kg, po after 10 days relative to lean control. Details: scale not given: the % may be the effect or the level left. Format: functional.
Data set [12] has as its system Mus musculus. As to the kind of experiment: Decrease in non-fasting blood glucose level in transgenic diabetic mouse expressing human glucagon receptor at 3 mg/kg, po after 10 days relative to lean control. Format: functional. Details: scale not given: the % may be the effect or the level left.
Data set [13] deals with Mus musculus. Nature of the data set: Inhibition of glucagon-induced hyperglycemic response in transgenic mouse expressing human glucagon receptor at 30 mg/kg, po after 24 mins relative to control. Format: functional. The note with it: 0.4 h.
In data set [14] the test system is Mus musculus. As to the kind of experiment: Decrease in non-fasting blood glucose level in transgenic diabetic mouse expressing human glucagon receptor at 10 mg/kg, po after 3 days relative to lean control. Format: functional. Further details: scale not given: the % may be the effect or the level left.
Data set [15] has as its system Mus musculus. As to the kind of experiment: Inhibition of glucagon-induced hyperglycemic response in transgenic mouse expressing human glucagon receptor at 10 mg/kg, po after 24 mins relative to control. In kind it is functional. The following applies: 0.4 h.
In data set [16] the test system is Mus musculus. Nature of the data set: Inhibition of glucagon-induced hyperglycemic response in transgenic mouse expressing human glucagon receptor at 3 mg/kg, po after 24 mins relative to control. In kind it is functional. The note with it: 0.4 h.

T1 sequence (P47871 whole entry): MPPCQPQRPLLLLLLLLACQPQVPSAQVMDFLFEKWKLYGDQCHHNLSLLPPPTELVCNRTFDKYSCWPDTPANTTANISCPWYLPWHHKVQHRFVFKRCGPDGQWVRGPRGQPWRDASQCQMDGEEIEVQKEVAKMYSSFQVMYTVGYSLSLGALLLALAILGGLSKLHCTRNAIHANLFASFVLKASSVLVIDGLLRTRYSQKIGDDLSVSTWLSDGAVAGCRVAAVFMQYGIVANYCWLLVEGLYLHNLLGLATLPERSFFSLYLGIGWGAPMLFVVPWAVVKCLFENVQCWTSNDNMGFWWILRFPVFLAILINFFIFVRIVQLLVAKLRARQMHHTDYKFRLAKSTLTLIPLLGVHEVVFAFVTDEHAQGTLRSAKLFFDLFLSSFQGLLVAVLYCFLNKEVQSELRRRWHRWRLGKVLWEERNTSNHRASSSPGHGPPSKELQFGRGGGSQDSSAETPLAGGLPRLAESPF

For `CC(C)(C)[C@H]1CC[C@H](N(C(=O)Nc2cc(Cl)cc(Cl)c2)C2CCc3cc(C(=O)Nc4nn[nH]n4)ccc32)CC1` (stereo not given in full), the figures for the IC50 in data set [1] (read-out: IC50), in data set [3] and in [4] were 5.9 nM, 4.9 nM and 3530 nM, respectively. Moreover, the Fold change in data set [2] is above 500.

As to `CC(C)(C)[C@H]1CC[C@H](N(C(=O)Nc2cc(C(F)(F)F)cc(C(F)(F)F)c2)C2CCc3cc(C(=O)Nc4nnn[nH]4)ccc32)CC1` (stereo not given in full), the IC50 in data set [1] (read-out: IC50) stood at 61 nM; in [3], 7.6 nM; in data set [4], 4260 nM.

On to `O=C(Nc1nnn[nH]1)c1ccc2c(c1)CCC2N(C(=O)Nc1ccc(OC(F)(F)F)cc1)c1ccc(OC(F)(F)F)cc1` (stereo not given), for which the IC50 is 3430 nM in data set [1] (read-out: IC50) and 62 nM in data set [3].

`CC(C)(C)[C@H]1CC[C@H](N(C(=O)Cc2ccc(OC(F)(F)F)cc2)C2CCc3cc(C(=O)NCCC(=O)O)ccc32)CC1` (stereo not given in full): the half-inhibitory concentration (IC50) is 500 nM in data set [1] (read-out: IC50), 18 nM in data set [3] and 286 nM in data set [4].

As for `CC(C)(C)[C@H]1CC[C@H](N(C(=O)Nc2ccc(OC(F)(F)F)cc2)C2CCCc3cc(C(=O)NCCC(=O)O)ccc32)CC1` (stereo not given in full), in [5], the bioavailability was determined as 10%. Further, in data set [6], the Cmax is 90 nM. In [7], the half-life is 2.5 h. The Vd in [8] is 0.9 L/kg. Moreover, the concentration for half-maximal inhibition (IC50) in [4] amounted to 171 nM. In data set [9], this compound yielded a clearance of 9 mL/min/kg.

As for `CC(C)(C)[C@H]1CC[C@@H](N(C(=O)Nc2ccc(OC(F)(F)F)cc2)C2CCc3cc(C(=O)Nc4nn[nH]n4)ccc32)CC1` (stereo not given in full), the IC50 worked out at 795 nM in data set [1] (read-out: IC50) and 216 nM in [3].

Turning to `O=C(O)CCNC(=O)c1ccc2c(c1)CCC2N(C(=O)Nc1ccc(OC(F)(F)F)cc1)c1ccc(C2CCCCC2)cc1` (stereo not given), the IC50 in data set [1] (read-out: IC50) was 189 nM; in data set [3], 68 nM.

For `CC(C)(C)[C@H]1CC[C@H](N(C(=O)Nc2cc(C(F)(F)F)cc(C(F)(F)F)c2)C2CCc3cc(C(=O)NCCC(=O)O)ccc32)CC1` (stereo not given in full), the IC50 in [1] (read-out: IC50) came to 46 nM; in data set [3] it was 28 nM; in [4], 2020 nM.

As for `CC(C)(C)[C@H]1CC[C@@H](N(C(=O)Nc2ccc(OC(F)(F)F)cc2)C2CCc3cc(C(=O)Nc4nn[nH]n4)ccc32)CC1` (single isomer, unassigned), the IC50 is 18 nM in data set [1] (read-out: IC50), 1.01 nM in data set [3] and 435 nM in [4].

On to `CC(C)(C)[C@H]1CC[C@H](N(C(=O)Nc2cc(Cl)cc(Cl)c2)C2CCc3cc(C(=O)NCCC(=O)O)ccc32)CC1` (stereo not given in full), for which the 50% inhibitory concentration (IC50) in [1] (read-out: IC50) is 11 nM; in data set [3], 10 nM; in data set [4], 1280 nM. The Fold change in [2] was above 100.

For `CC(C)(C)[C@H]1CC[C@H](N(C(=O)Nc2ccc(OC(F)(F)F)cc2)C2CCc3cc(C(=O)Nc4nn[nH]n4)ccc32)CC1` (stereo not given in full), the IC50 in data set [4] is 296 nM.

`CC(C)(C)[C@H]1CC[C@@H](N(C(=O)Nc2ccc(OC(F)(F)F)cc2)C2CCc3cc(C(=O)NCCC(=O)O)ccc32)CC1` (stereo not given in full) had an IC50 in data set [3] of 3380 nM.

With `CC(C)(C)[C@H]1CC[C@H](N(C(=O)Nc2ccc(OC(F)(F)F)cc2)C2CCOc3cc(C(=O)NCCC(=O)O)ccc32)CC1` (stereo not given in full), in [5], the bioavailability worked out at 15%. The compound also registered a Cmax in data set [6] of 60 nM. This compound gave a half-life in data set [7] of 3.4 h. Also, the Vd in data set [8] was determined as 1.4 L/kg. For the same compound, the IC50 in data set [4] came out at 217 nM. The compound further yielded a clearance in data set [9] of 13 mL/min/kg.

As to `CC(C)(C)[C@H]1CC[C@H](N(C(=O)Nc2ccc(OC(F)(F)F)cc2)C2CCc3cc(C(=O)NCCC(=O)O)ccc32)CC1` (stereo not given in full), the Activity in [10] amounted to 72%; in [11], 106%; in data set [12] it was 87%; in [14], 99%. The compound also returned a bioavailability in data set [5] of 17%. The compound further yielded a peak concentration (Cmax) in [6] of 130 nM. The compound further had a half-life in data set [7] of 5.6 h. Moreover, the Vd in [8] was 1.6 L/kg. Moreover, in data set [13], the inhibition in vivo at 30 mg/kg worked out at 122%. Besides, the inhibition in vivo at 10 mg/kg in data set [15] amounted to 59%. Moreover, the inhibition in vivo at 3 mg/kg in data set [16] turned out to be 51%. For the same compound, the IC50 in [4] came to 132 nM. Besides, in [9], the clearance stood at 9 mL/min/kg.

With `CC(C)(C)[C@H]1CC[C@H](N(C(=O)Nc2ccc(OC(F)(F)F)cc2)C2CCOc3cc(C(=O)Nc4nn[nH]n4)ccc32)CC1` (stereo not given in full), the 50% inhibitory concentration (IC50) in [4] worked out at 117 nM.

As to `CC(C)(C)[C@H]1CC[C@H](N(C(=O)c2ccc(OC(F)(F)F)cc2)C2CCc3cc(C(=O)Nc4nnn[nH]4)ccc32)CC1` (stereo not given in full), the values for the half-inhibitory concentration (IC50) in data set [1] (read-out: IC50), in data set [3] and in [4] were 1470 nM, 49 nM and 610 nM, respectively.

Turning to `O=C(O)CCNC(=O)c1ccc2c(c1)CCC2N(C(=O)Nc1ccc(OC(F)(F)F)cc1)c1ccc(OC(F)(F)F)cc1` (stereo not given), the IC50 result in data set [1] (cho) was “Not Active”; in data set [3], 820 nM.

`CC(C)(C)[C@H]1CC[C@H](N(C(=O)c2ccc(OC(F)(F)F)cc2)C2CCc3cc(C(=O)NCCC(=O)O)ccc32)CC1` (stereo not given in full): the 50% inhibitory concentration (IC50) in data set [1] (read-out: IC50) was determined as 2780 nM; in [3], 130 nM.

In [5], `CC(C)(C)[C@H]1CC[C@H](N(C(=O)Nc2ccc(OC(F)(F)F)cc2)C2CCCc3cc(C(=O)Nc4nn[nH]n4)ccc32)CC1` (stereo not given in full) came in with a bioavailability of 1.4%. This compound showed a Cmax in data set [6] of 40 nM. In [7], this compound gave a half-life of 8 h. Besides, the Vd in [8] stood at 1.4 L/kg. Moreover, the 50% inhibitory concentration (IC50) in data set [4] came to 178 nM. In addition, the clearance in data set [9] is 6.4 mL/min/kg.

Consider `CC(C)(C)[C@H]1CC[C@@H](N(C(=O)Nc2ccc(OC(F)(F)F)cc2)C2CCc3cc(C(=O)NCCC(=O)O)ccc32)CC1` (single isomer, unassigned), for which the IC50 in data set [1] (read-out: IC50) worked out at 46 nM; in [3] it was 3.8 nM; in data set [4] it was 603 nM.

`CC(C)(C)[C@H]1CC[C@H](N(C(=O)Cc2ccc(OC(F)(F)F)cc2)C2CCc3cc(C(=O)Nc4nnn[nH]4)ccc32)CC1` (stereo not given in full): the IC50 in data set [1] (read-out: IC50) came out at 67 nM; in [3], 4.8 nM; in [4] it was 118 nM.

As to `O=C(Nc1nn[nH]n1)c1ccc2c(c1)CCC2N(C(=O)Nc1ccc(OC(F)(F)F)cc1)c1ccc(C2CCCCC2)cc1` (stereo not given), the IC50 in [1] (read-out: IC50) is 85 nM; in [3], 22 nM.
